From patent US20260042769A1, “TRIARYL AGONISTS OF ALPHA-2 ADRENERGIC RECEPTORS” (ALCEPTOR THERAPEUTICS, INC., priority 2023, published 2026) come the findings set out here.

Like-named read-outs stand apart in the source and are kept apart here.

This assay addresses T1, human ADRA2B receptor (Homo sapiens, UniProt P18089).
T1 construct: expressed in transfected cells
T1 sequence (P18089 1-450): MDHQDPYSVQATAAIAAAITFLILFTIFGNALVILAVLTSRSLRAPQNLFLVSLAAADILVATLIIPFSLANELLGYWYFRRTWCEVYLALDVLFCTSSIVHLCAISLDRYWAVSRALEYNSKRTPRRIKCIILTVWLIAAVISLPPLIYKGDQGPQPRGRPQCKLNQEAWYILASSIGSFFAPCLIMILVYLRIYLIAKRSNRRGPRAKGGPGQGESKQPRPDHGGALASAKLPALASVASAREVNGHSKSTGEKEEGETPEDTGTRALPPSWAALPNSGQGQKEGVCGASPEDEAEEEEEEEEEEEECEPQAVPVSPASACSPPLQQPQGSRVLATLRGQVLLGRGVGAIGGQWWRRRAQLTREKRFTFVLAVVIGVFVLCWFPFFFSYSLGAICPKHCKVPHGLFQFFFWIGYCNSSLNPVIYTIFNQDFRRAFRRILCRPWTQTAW
The assay is described as follows: ADRA2B arrestin agonist assay. As to conditions: read-out: Beta-Arrestin - Human Alpha2B EC50. It counts as cell-based. An outline of the steps: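 CHO-K1 cells stably expressing human ADRA2B, thawed from frozen stock and plated overnight, were treated with agonist for 2 h at 37 °C. Arrestin recruitment detected by luminescence after 2 h with detection reagents at room temperature.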

Setting [1] is: CHO-K1 cells stably expressing human ADRA2B.

As usually defined, the EC50 is the concentration that produces a half-maximal response. `COc1nccc(C[C@H](c2c[nH]cn2)c2cccc(C)c2OC)n1` [Compound 180, 4-[(S)-2-(4-imidazolyl)-2-(2-methoxy-3-tolyl)ethyl]-2-methoxypyrimidine]: the EC50 under setting [1] was greater than 500 nM.
As to `Cc1cccc([C@H](Cc2ccncc2)c2c[nH]cn2)c1C` [Compound 319, 4-[(S)-2-(4-pyridyl)-1-(2,3-xylyl)ethyl]imidazole], the EC50 is less than 10 nM.
For the molecule `Cc1nccc(C[C@@H](c2c[nH]cn2)c2cccc(C)c2F)n1` [Compound 141, 4-[(R)-2-(2-fluoro-3-tolyl)-2-(4-imidazolyl)ethyl]-2-methylpyrimidine], under setting [1], the EC50 is less than 10 nM.
In the case of `OCc1nccc(CC(c2c[nH]cn2)c2cccc(Cl)c2F)n1` (stereo not drawn) [Compound 191, {4-[2-(3-chloro-2-fluorophenyl)-2-(4-imidazolyl)ethyl]-2-pyrimidinyl}methanol], the EC50 under setting [1] lay in the range of 10 to 50 nM.
Still for that read-out and setting: with `COc1c(C)cccc1C(Cc1cc[nH]n1)c1c[nH]cn1` (stereo not drawn) [Compound 242, 3-[2-(4-imidazolyl)-2-(2-methoxy-3-tolyl)ethyl]pyrazole] the figure was greater than 500 nM.
Still for that read-out and setting: the result for `Cc1cccc(C(Cc2cc[nH]n2)c2c[nH]cn2)c1F` (stereo not drawn) [Compound 236, 3-[2-(2-fluoro-3-tolyl)-2-(4-imidazolyl)ethyl]pyrazole] reads 50 to 500 nM; that for `COc1nccc(CC(c2c[nH]cn2)c2cccc(Cl)c2F)n1` (stereo not drawn) [Compound 190, 4-[2-(3-chloro-2-fluorophenyl)-2-(4-imidazolyl)ethyl]-2-methoxypyrimidine], 10 to 50 nM.
On to `Cc1cc(CC(c2c[nH]cn2)c2cccc3ccn(C)c23)ncn1` (stereo not drawn) [Compound 165, 4-[2-(4-imidazolyl)-2-(1-methyl-7-indolyl)ethyl]-6-methylpyrimidine], for which the EC50 under setting [1] was 50 to 500 nM.
Still for that read-out and setting: the result for `Cc1cccc([C@@H](Cc2cccc(CO)n2)c2c[nH]cn2)c1C` [Compound 146, {6-[(R)-2-(4-imidazolyl)-2-(2,3-xylyl)ethyl]-2-pyridyl}methanol] reads less than 10 nM.
On to `COc1nccc(CC(c2ccc(F)c(F)c2)c2c[nH]cn2)n1` (stereo not drawn) [Compound 162, 4-[2-(3,4-difluorophenyl)-2-(4-imidazolyl)ethyl]-2-methoxypyrimidine], for which, under setting [1], the EC50 was greater than 500 nM.
Regarding `COc1cc(CC(c2c[nH]cn2)c2cccc(C)c2C)nc(OC)n1` (stereo not drawn) [Compound 307, 4-[2-(4-imidazolyl)-2-(2,3-xylyl)ethyl]-2,6-dimethoxypyrimidine], the EC50 under setting [1] was less than 10 nM.
Same read-out and setting: the result for `Cc1cc(CC(c2c[nH]cn2)c2cccc(C)c2C)nc(C(C)(C)O)n1` (stereo not drawn) [Compound 207, 2-{4-[2-(4-imidazolyl)-2-(2,3-xylyl)ethyl]-6-methyl 2-pyrimidinyl}-2-propanol] reads less than 10 nM; that for `CNC(=O)c1ccc(CC(c2c[nH]cn2)c2cccc(C)c2C)cn1` (stereo not drawn) [Compound 302, N-methyl-5-[2-(4-imidazolyl)-2-(2,3-xylyl)ethyl]-2-pyridinecarboxamide], less than 10 nM; that for `Cc1cccc([C@@H](Cc2cccc(CF)n2)c2c[nH]cn2)c1C` [Compound 150, 4-{(R)-2-[6-(fluoromethyl)-2-pyridyl]-1-(2,3-xylyl)ethyl}imidazole], less than 10 nM.
Same read-out and setting: with `Cc1nccc(CC(c2c[nH]cn2)c2cccc3c2cnn3C)n1` (stereo not drawn) [Compound 167, 4-[1-(4-imidazolyl)-2-(2-methyl-4-pyrimidinyl)ethyl]-1-methyl-1H-indazole] the figure was less than 10 nM; with `[2H]C([2H])([2H])Oc1c(C)cccc1C(Cc1ccnc(C)n1)c1c[nH]cn1` (stereo not drawn) [Compound 359, 4-{2-(4-imidazolyl)-2-[2-(^2H3)methoxy-3-tolyl]ethyl}-2-methylpyrimidine], 10 to 50 nM; with `COc1nc(CC(c2c[nH]cn2)c2cccc3c2OCC3)ccc1F` (stereo not drawn) [Compound 313, 4-[1-(2,3-dihydro-1-benzofuran-7-yl)-2-(5-fluoro-6-methoxy-2-pyridyl)ethyl]imidazole], less than 10 nM.
On the same count and under the same terms, the result for `Cc1cccc(C(Cc2ccnc(COC3CC3)n2)c2c[nH]cn2)c1C` (stereo not drawn) [Compound 208, 2-(cyclopropoxymethyl)-4-[2-(4-imidazolyl) 2-(2,3-xylyl)ethyl]pyrimidine] reads less than 10 nM.
